Where two headings read alike, the source gives them in different places.
Experiments:
[1] = system: PfCRT-Q352R (parent Dd2); test: Cross-resistance EC50 assay, PfCRT-Q352R; assay type: cell-based; details: Plasmodium falciparum, DD2, 72 h, read-out: PfCRT:Q352R (Dd2 Parent) Average EC50
Excerpt: (§1) To evaluate potential overlapping activity against known antimalarial drug targets, we performed dose-response studies with each compound against our assembled set of drug-resistant lines and their corresponding parents, in an asexual blood stage proliferation assay (Table 1). Comparisons were made to the drug-sensitive strain 3D7 when a parent was unavailable (TM90C2A, W2 and Dd2). As laboratories conducted EC50 assays with different strains and protocols, all comparisons were made between assays from the same laboratory and under the same assay conditions. Compounds displaying >5-fold EC50 shifts relative to the parent or sensitive strain were flagged as having potentially non-novel targets. Average fold shifts per strain ranged from 0.82 to 2.34, with a median of 1.23 indicating there was not common resistance to any one resistant clone. No resistance patterns were observed when classifying the compounds based on chemical structure, but this was not surprising given the diversity of compounds chosen. On the other hand, given that these confirmed compounds were derived from larger unconfirmed hit lists to which some filtration criteria may have been applied (for example, elimination of obvious dihydrofolate reductase inhibitors[32]), some[10][11][12][13] pre-existing bias may exist in the set. […]
(§2) Alternatively, a SYBR Green-based proliferation approach was used for the 72-h assay, as previously described. Briefly, a culture of either synchronized or asynchronous parasitized RBCs (0.3% parasitemia and 4% haematocrit) in screening medium (identical to supplemented medium above except no serum was added) was exposed to serial drug dilutions. Plates were incubated at 37 °C and gassed with 93% N2, 4% CO2 and 3% O2 for 72 h. Following incubation, 10 × SYBR Green I (Invitrogen; supplied in 10,000 × concentration) in lysis buffer ([…], 5 mM EDTA, 0.16% Saponin wt per vol and 1.6% Triton X vol per vol) was added to the wells and the plates were incubated overnight at room temperature before plate reading. EC50 assays were repeated three times, taking the average EC50 value from each assay set, and removing any outliers using a single iteration of Grubbs' test, eliminating values with z-scores above the critical z-value (α=0.05). The raw EC50 values for synchronized parasites assayed in a 384-well format are listed in Supplementary Data 4. The raw EC50 values for asynchronous parasites assayed in a 96 or 1536-well format are listed in Supplementary Data 5.
(§3) EC50 values for each strain were compared with those of the corresponding parent strain to determine fold-shift changes and identify resistance. To minimize the cause variance between assays, all comparisons were conducted between strains assayed under identical conditions. A one-way ANOVA followed by a Dunnet's post-test was conducted in GraphPad Prism to identify significant changes between the parent and resistant strain.

[2] = system: GNF156R (PfCARL L830V, S1076I and M81I, parent Dd2); test: Cross-resistance EC50 assay, GNF156R; assay type: cell-based; details: Plasmodium falciparum, SYBR green 72 hour assay, asynchronized parasites, 96-well or 1536-well format
Excerpt: as §1, §2, §3

[3] = system: ATQ-R5 (cytb F267V, parent 3D7); test: Cross-resistance EC50 assay, ATQ-R5; assay type: cell-based, Plasmodium falciparum; details: for EC50: Plasmodium falciparum, 3D7, SYBR green 72 hour assay, asynchronized parasites, 96-well or 1536-well format, ATQ-R5
Excerpt: as §1, §2, §3

[4] = system: Dd2; test: Cross-resistance EC50 assay, Dd2 parent; assay type: cell-based, Plasmodium falciparum; details: Plasmodium falciparum
Excerpt: Multidrug resistance alleles, including mutations in P. falciparum chloroquine resistance transporter (pfcrt) and P. falciparum multi-drug resistance transporter 1 (pfmdr1) are very common in field isolates. Therefore, we sought to assess the degree to which pre-existing resistance alleles would contribute to a loss of potency for this diverse collection of small molecule compounds. Fifteen clones derived from three main parent lines were chosen to maximize diversity in mutated pathways and genetic backgrounds, thus representing the variety of resistance seen in the field: 3D7 (ref. [23]), W2 (ref. [24]) or Dd2 (ref. [25]). The 3D7 line originates from the clone of a Netherlands clinical isolate strain[23][26] and is generally considered to be drug sensitive, though it does convey resistance to sulfadoxine. Conversely, W2 (ref. [24], [27]) and Dd2 (ref. [25]) are multi-drug-resistant lines originating from the Indochina III/CDC isolate, which contain point mutations in pfcrt as well as amplifications in pfmdr1 and GTP cyclohydrolase.
as §1, §2, §3

[5] = system: P. falciparum 3D7, Dd2, Dd2Δexo; test: In vitro evolution of compound-resistant lines (selection); assay type: cell-based, Plasmodium falciparum; details: for # of Resistant Strains Generated: resistant cultures out of three independent cultures; for EC50 fold shifts observed: selected parasites vs selection parent
Excerpt: While we found an overall lack of pre-existing resistance, analysing the onset of resistance was critical, as compounds resulting in rapid resistance are not ideal for clinical development. We therefore sought to create drug-resistant parasites using a variety of different selection methods. We implemented either a high-dose method or a ramp-up/pulse method for our in vitro selections. Two of the 50 compounds—MMV028895 and MMV665824—were removed from the selection study during experimentation. […] Out of the remaining 48 compounds, resistant parasites were obtained for 23 (Supplementary Data 1). As each selection was performed in triplicate with three independent cultures, we succeeded in generating a total of 66 resistant cultures. Parasites resistant to MMV026596 were not obtained despite 100 days of selection, but the cultures acquired hypersensitivity to mefloquine with a 10-fold reduction in EC50 compared with its parental line, 3D7. For the remaining 24 compounds, acquisition of resistant parasites was unsuccessful despite numerous attempts over an extensive period of time.
Based on the compound speed of action and lab specialty, selections were conducted using a high-pressure intermittent selection method, a step-wise selection method, or a constant selection method. For high-pressure selections, ∼1–2 × 10^9 parasites were treated at a concentration of 3–10 × EC50 until parasites could not be seen by microscopy (4–10 days). Following treatment, compound pressure was removed and cultures were allowed to recover. Once healthy parasites were seen and parasitemia reached ∼2%, compound pressure was reinstated. For step-wise selections, ∼1 × 10^8 parasites were treated at a starting concentration resulting in a reduced growth rate of 50%. Cultures were examined daily by microscopy, increasing compound concentration in increments of 5–10% as needed to maintain a 50% reduced growth rate. Selections were carried out until cultures achieved a reproducible EC50 fold shift of >3 × . Finally, constant selections were conducted in a similar manner to the high-pressure intermittent method with the exception that compound pressure was never removed. Following successful selection, cultures were cloned out using a limiting dilution method as previously described. Selections were terminated after 200 days if resistance could not be obtained.

[6] = system: CYTbQi (cytb G33A, parent Dd2); test: Cross-resistance EC50 assay, CYTbQi; assay type: cell-based; details: Plasmodium falciparum, SYBR green 72 hour assay, synchronized parasites, 384-well format
Excerpt: as §1, §2, §3

[7] = DD2, 72 h, read-out: Dd2 (PARENT) Average EC50
[8] = DD2, 72 h, read-out: Dd2 (PARENT) EC50 (µM) Average EC50

SMILES	EC50 [1]	EC50 [2]	EC50 [3]	EC50 [4, 7]	EC50 [4, 8]	Time Length to Obtain Mutants ([5]; in vitro selection)	# of Resistant Strains Generated [5]	EC50 fold shifts observed [5]	EC50 ([6]; strain CYTbQi (Dd2 parent))	EC50 ([4]; DD2, read-out: EC50, Dd2 parent)	EC50 ([6]; DD2, CYTbQi strain)	acquisition of resistant parasites ([5]; in vitro selection)	resistance in ATQ-R5 vs parent ([3]; EC50 fold-shift under the threshold (5-fold))
CCN(CC)S(=O)(=O)c1ccc(-c2csc(Nc3ccc(C)c(C)c3)n2)cc1 [MMV009108]	404 nM	1.5 µM	2.35 µM	0.368 µM	0.929 µM	SHORT (0-50 days)	3/3	9x	416 nM				
CN1CCN(c2ccc(Nc3c4ccccc4nc4ccccc34)cc2)CC1 [MMV006172]	75 nM	0.32 µM	0.181 µM	0.168 µM	0.298 µM	LONG (> 125 days)	0/3	no shift	107 nM				
Cc1c(C)n(Cc2ccc(F)cc2)c2ccc(C(=O)NCc3ccco3)cc12 [MMV008149]	139 nM	0.798 µM	1.58 µM	0.09 µM	1.63 µM	SHORT (0-50 days)	3/3		87 nM	0.485 µM			
CC(C)c1cccc(C(NC(=O)C2Cc3ccccc3CN2C(=O)c2cccc(N3CCOCC3)c2)C2CCCC2)c1 (centres unmarked) [MMV028038]	314 nM	0.654 µM	0.839 µM	0.299 µM	0.622 µM	MODERATE (50-125 days)	3/3	5-30x	339 nM				
COc1ccc(C(=O)C2CC2c2ccc(Cl)cc2)cc1 (centres unmarked) [MMV665924]	1400 nM	1.17 µM	3.63 µM	1.19 µM	1.58 µM	SHORT (0-50 days)	3/3	3-5x	1130 nM				
O=C(Nc1ccc(Cl)c(Cl)c1)Nc1ccc(Cl)c(Cl)c1 [MMV665852]	905 nM	0.75 µM	2.71 µM	0.894 µM	1.8 µM	LONG (> 125 days)	0/3	no shift	1010 nM				
Cl.c1ccc2c(NCCCCCCNc3c4c(nc5ccccc35)CCCC4)c3c(nc2c1)CCCC3 [MMV019555]	166 nM	0.22 µM	0.086 µM	0.236 µM	0.241 µM	LONG (> 125 days)	0/3	no shift	227 nM				
COc1ccc(NC(=O)N2CCCCN3[C@H](CN)[C@H](c4ccc(C#Cc5ccccc5)cc4)[C@@H]3C2)cc1 [BRD1095]	12 nM	0.00166 µM	0.002 µM	0.013 µM	0.00257 µM	SHORT (0-50 days)	3/3	4-100x			18 nM		
Cc1ccc(S(=O)(=O)n2cc(-c3ccnc(N)c3)c3cc(Br)cnc32)cc1 [MMV024114]	499 nM	2.9 µM	1.72 µM	0.766 µM	1.64 µM	LONG (> 125 days)	3/3	2x	1380 nM				
CNCc1ccc2nc(-c3coc(Cc4cc(Cl)ccc4OCC(C)C)n3)[nH]c2c1.Cl.Cl [MMV026596]	451 nM	0.414 µM	0.376 µM	0.347 µM	0.158 µM	LONG (> 125 days)	0/3	no shift	431 nM			not obtained	
Cc1cc(Nc2ccc(OCc3ccccc3)cc2)nc2cc(O)ccc12 [MMV007181]	133 nM	0.163 µM	0.088 µM	0.186 µM	0.19 µM	LONG (> 125 days)	0/3	no shift	144 nM				
OC(CNC1CCCCC1)Cn1c2ccccc2c2ccccc21 (centres unmarked) [MMV009063]	315 nM	0.095 µM	0.652 µM	0.188 µM	0.364 µM	LONG (> 125 days)	3/3	1.9-3.4x	257 nM				
O=C(NC(c1ccccc1)c1ccc2cccnc2c1O)c1ccccc1 (centres unmarked) [MMV666080]	545 nM	0.822 µM	0.756 µM	0.426 µM	0.886 µM	LONG (> 125 days)	0/3	no shift	1290 nM				
CN(C)CCCNCc1ccc(-c2ccc(Cl)c(Cl)c2)o1 [MMV673964]	552 nM	1.33 µM	0.108 µM	0.426 µM	1.12 µM	LONG (> 125 days)	0/3	no shift			319 nM		
COc1ccccc1CNC(=O)CCn1c(=O)[nH]c2ccsc2c1=O [MMV019066]	63 nM	0.008 µM	0.023 µM	0.054 µM	0.00951 µM	SHORT (0-50 days)	3/3	>15x	74 nM				Statistically significant resistance

Source: PMC4912613, “A broad analysis of resistance development in the malaria parasite” (Nature Communications, 2016)
